This note sets out measurements from patent US20110124574A1, “RESTORATION OF ESTROGEN RECEPTOR-(ALPHA) ACTIVITY” (priority 2008, published 2011).

Where no end group is shown, it is not given here. The star is where a group is joined. For = O=C*

Holding throughout (assay type): cell-based, human
The test system of one assay is ERα. In words: ERα mRNA by RT-PCR in stimulated MDA-MB-231 cells. Conditions: time points 6, 12, 18 and 24 hours. As for the experimental part: Breast cancer cells were grown in 6 well plates and stimulated with recombinant Wnt-5a protein (rW5a) or the Wnt-5a derived Foxy-5 peptide (F5), for 6, 12, 18 or 24 h. RNA was extracted at the end time point, cDNA synthesized and subjected to RT-PCR for ERα and the housekeeping gene, β-actin. A: MDA-MB-231 breast cancer cells, B: MDA-MB-468 breast cancer cells. The positive control (Pos) is RNA extracted from T47D cells which express ERα. The negative control represents a water control.
Stimulation of cells was performed with recombinant Wnt-5a (0.6 μg/ml) and recombinant Wnt-3a (0.1 μg/ml and in a control experiment, 0.6 μg/ml) (R&D Systems Abington, UK) for times as indicated. The Wnt-5a derived formylated hexapeptide, Foxy-5 (formyl-MDGCEL) (SEQ. ID. NO. 1) designed in the laboratory of the inventors, and a formylated random hexapeptide (formyl-MSADVG) (SEQ: ID: NO: 16) were either synthesized by Pepscan Presto (Lelystad, The Netherlands) or Inbiolabs (Tallinn, Estonia). The peptides were purified by RP-HPLC and mass spectrometry, and the >95% pure peptides were synthesized three times. […]
RNA extraction was performed in a designated clean RNA area with the addition of 500 μl TRIzol to each sample. […] The RNA concentration was measured using a Nanodrop Spectrophotometer ND-1000 (Bio-Rad (Hercules Calif.)). […]

Assay [1] relates to progesterone receptor (PR). In words: Progesterone receptor mRNA by semi-nested RT-PCR in MDA-MB-231 cells. Conditions: after 96 hours stimulation. An excerpt: A: Following treatment, cells were lysed and subjected to SDS-PAGE, transferred to nitrocellulose membranes and blotted for phospho-ERα expression. The positive control (Pos) represents cell lysates from T47D cells expressing ERα B and C: RNA was also extracted from stimulated cells and samples tested for progesterone receptor (PR) (B) and pS2 (C) mRNA using semi-nested RT-PCR. The positive control (Pos) is RNA extracted from T47D cells that express ERα. The negative control represents a water control. PCR results are representative of three separate experiments.
cDNA was synthesized from 1 μg of total RNA using M-MuLV reverse transcriptase (Fermentas) in a MJ Mini Personal Thermal Cycler (Bio-Rad (Hercules Calif.)). All RT-PCR was performed in a designated clean PCR hood. RT-PCR was performed using a master mix containing with 5 μl of 10× buffer, 5 μl of 25 mM MgCl2, 1 μl 10 mM dNTP, 1 μl forward primer, 1 μl reverse primer and 0.2 μl of Taq polymerase (Fermentas (Ontario, Canada)) per sample. For detection of the progesterone receptor (PR), semi nested RT-PCR was performed to increase sensitivity, whereby 10 μl of the initial PCR reaction product was added to a second PCR reaction with a second internal reverse primer. Both A and β isoforms are amplified with these primers.

The test system of the next assay is cleaved caspase 3. Description: Cleaved caspase 3 Western blot after tamoxifen. Conditions: MDA-MB-231, stimulation plus tamoxifen, compared with cells treated only with tamoxifen. As to the method:
MDA-MB-231 cells were grown in 6 well plates and stimulated with recombinant Wnt-5a protein (rW5a) or the Wnt-5a derived Foxy-5 peptide (F5), for 24 or 48 h. Cells were treated with tamoxifen for the final 20 h and their apoptotic responses were measured via different methods. […] Arrows highlight apoptotic cells. Bars represent […]. B: Following treatment with rW5a, F5 and tamoxifen, or tamoxifen alone, cells were lysed and subjected to SDS-PAGE, transferred to nitrocellulose membranes and blotted for cleaved caspase 3. C: Treated cells were assessed for their relative caspase 3 activity using fluorometric spectrophotometry. The graph represents 6 separate experiments. * P<0.01, ** P<0.001. D: MTT assays were also performed on MDA-MB-231 cells treated with rWnt-5a, F5 and tamoxifen, or tamoxifen alone (MDA-MB-231 and MCF-7 cells) to assess cell growth inhibition. The graph represents the average of 6 separate experiments, with standard deviation represented by error bars. ** P<0.01, *** P<0.001.
Cells were lysed in Triton lysis buffer (50 mM Tris (pH7.5), 1% Triton x-100, 140 mM NaCl, 0.5 mM EDTA, 0.5 MgCl2, 10 mM NaF) with the addition of fresh leupeptin (1 μg/ml), Pefabloc (2 mM), aprotinin (20 μg/ml) and Na3VO4 (4 mM). […] Scanning and densitometry was performed using a Bio-Rad (Hercules Calif.) GS-800 densitometer with Quantity One software. […]
For orientation: A western blot detects proteins with antibodies after separation by electrophoresis.

“formyl-MDGCEL (For-MDGCEL; listed as Homo sapiens) [Foxy-5]”: the “stimulation time after which ERα mRNA was detected” value in the assay with ERα is 6 h. For the same molecule, in assay [1], the “PR mRNA” value is given as “detected”. In addition, the “levels of cleaved caspase-3” value in the assay on cleaved caspase 3 is recorded as “higher levels”.

B1: recombinant Wnt-5a: recombinant Wnt-5a protein (R&D Systems) (protein, UniProt P41221 62-380, looked up)
Protein Wnt-5a: IIGAQPLCSQLAGLSQGQKKLCHLYQDHMQYIGEGAKTGIKECQYQFRHRRWNCSTVDNTSVFGRVMQIGSRETAFTYAVSAAGVVNAMSRACREGELSTCGCSRAARPKDLPRDWLWGGCGDNIDYGYRFAKEFVDARERERIHAKGSYESARILMNLHNNEAGRRTVYNLADVACKCHGVSGSCSLKTCWLQLADFRKVGDALKEKYDSAAAMRLNSRGKLVQVNSRFNSPTTQDLVYIDPSPDYCVRNESTGSLGTQGRLCNKTSEGMDGCELMCCGRGYDQFKTVQTERCHCKFHWCCYVKCKKCTEIVDQFVCK
As to B1, the “stimulation time after which ERα mRNA was detected” value in the assay with ERα worked out at 12 h. For the same molecule, the “PR mRNA” value in assay [1] was “detected”. The “levels of cleaved caspase-3” value in the assay on cleaved caspase 3 is listed as “higher levels”.
